Data as given in the NIST ThermoML archive (doi:10.1016/j.jct.2005.06.011).

Legend:
[1] = xn = mol fraction of the nth substance listed; conditions: 101 kPa, Liquid; for speed of sound: Linear variable-path acoustic interferometer
[2] = refractive index (Na D-line) (dimensionless); xn = mol fraction of the nth substance listed; conditions: 101 kPa, Liquid

CCCCO [butan-1-ol] + CC1CCCCC1
x2 = 0
Conditions | mass density, 298.15 K [kg/m3] | mass density, 303.15 K [kg/m3] | mass density, 308.15 K [kg/m3] | refractive index, 298.15 K | refractive index, 303.15 K | refractive index, 308.15 K | speed of sound, 298.15 K [m/s] | viscosity, 298.15 K [mPa·s] | viscosity, 303.15 K [mPa·s] | viscosity, 308.15 K [mPa·s]
[1] | 808.49 | 804.6 | 800.67 | – | – | – | 1268 | 2.587 | 2.254 | 1.988
[2] | – | – | – | 1.3983 | 1.3959 | 1.394 | – | – | – | –

CC(C)CCO [3-methylbutan-1-ol] + CC1CCCCC1
Conditions | mass density, 298.15 K [kg/m3] | mass density, 303.15 K [kg/m3] | mass density, 308.15 K [kg/m3] | refractive index, 298.15 K | refractive index, 303.15 K | refractive index, 308.15 K | speed of sound, 298.15 K [m/s] | viscosity, 298.15 K [mPa·s] | viscosity, 303.15 K [mPa·s] | viscosity, 308.15 K [mPa·s]
[1], x2 = 0 | 820.17 | 816.28 | 812.34 | – | – | – | 1259 | 2.779 | 2.258 | 1.844
[1], x2 = 0.1002 | 814.65 | 810.69 | 806.74 | – | – | – | 1255 | 2.569 | 2.144 | 1.719
[1], x2 = 0.2011 | 809.13 | 805.14 | 801.13 | – | – | – | 1250 | 2.359 | 1.976 | 1.593
[1], x2 = 0.3001 | 803.62 | 799.57 | 795.53 | – | – | – | 1246 | 2.151 | 1.81 | 1.47
[1], x2 = 0.4016 | 798.1 | 794.02 | 789.92 | – | – | – | 1242 | 1.938 | 1.641 | 1.343
[1], x2 = 0.5019 | 792.58 | 788.45 | 784.32 | – | – | – | 1238 | 1.728 | 1.472 | 1.217
[1], x2 = 0.6012 | 787.06 | 782.89 | 778.72 | – | – | – | 1234 | 1.519 | 1.306 | 1.093
[1], x2 = 0.702 | 781.54 | 777.33 | 773.11 | – | – | – | 1230 | 1.307 | 1.136 | 0.9662
[1], x2 = 0.8011 | 776.03 | 771.78 | 767.51 | – | – | – | 1226 | 1.097 | 0.9594 | 0.8412
[1], x2 = 0.9009 | 770.51 | 766.22 | 761.9 | – | – | – | 1221 | 0.8861 | 0.8008 | 0.7156
[2], x2 = 0 | – | – | – | 1.4056 | 1.4034 | 1.4013 | – | – | – | –
[2], x2 = 0.1002 | – | – | – | 1.4073 | 1.405 | 1.4028 | – | – | – | –
[2], x2 = 0.2011 | – | – | – | 1.4089 | 1.4066 | 1.4043 | – | – | – | –
[2], x2 = 0.3001 | – | – | – | 1.4105 | 1.4081 | 1.4058 | – | – | – | –
[2], x2 = 0.4016 | – | – | – | 1.4121 | 1.4097 | 1.4073 | – | – | – | –
[2], x2 = 0.5019 | – | – | – | 1.4137 | 1.4112 | 1.4088 | – | – | – | –
[2], x2 = 0.6012 | – | – | – | 1.4153 | 1.4128 | 1.4103 | – | – | – | –
[2], x2 = 0.702 | – | – | – | 1.4169 | 1.4144 | 1.4118 | – | – | – | –
[2], x2 = 0.8011 | – | – | – | 1.4185 | 1.4159 | 1.4133 | – | – | – | –
[2], x2 = 0.9009 | – | – | – | 1.4201 | 1.4174 | 1.4148 | – | – | – | –
